Data reported in patent publication US10975068B2, “6-aminopyridin-3-yl thiazoles as modulators of RORγT” (Janssen Pharmaceutica NV, priority 2016, dated 2021).
Like-named read-outs stand apart in the source and are kept apart here.

How the values were obtained:
full-length human RORγt = full-length human RORγt (Homo sapiens (Human), UniProt P51449); assay: RORγt (full-length human) reporter assay, Conditions B or C; assay type: cell-based; details: for inhibition at 3 µM: at 3 μM compound concentration, read-out: RORγt (FL) Reporter Assay B or C, % inhibition; for IC50: read-out: RORγt (FL) Reporter Assay B or C, IC50; for RORγt (FL) Reporter Assay B or C, % inhibition (value marked *): marked *: footnote not given
Description: RORγt (Full-Length Human) Reporter Assay:
Cells used in this assay were transiently co-transfected with three different plasmids, one expressing the GAL4-DNA binding domain (DBD)-RORγt fusion protein under control of a CMV promoter (NH2-Gal4-DBD:RORC-COOH in pCMV-BD, Stratagene #211342), and two reporter plasmids—the firefly luciferase reporter under control of a GAL4 promoter (pFR-Luc 2×GAL4) and Renilla luciferase reporter under control of CMV promoter (pRL-CMV, Promega # E2261). The full-length coding sequence was used for human RORγt, i.e., nucleotides 142-1635 of human RORγt, transcript variant 2, NCBI Accession: NM_001001523.1 (SEQ ID NO:1). HEK293T cells were plated at 35,000 per well in 96-well plate in medium of DMEM with 10% FBS. After 18-22 hours incubation, the transfection was carried out by using a PEI solution with 170.5 ng total DNA/well (50 ng pCMV-BD-ROR plus 20 ng of pFR-Luc reporter and 0.5 ng of pRL-CMV reporter plus 100 ng Carrier DNA (Clontech #630440) for each well). 4-6 hours after transfection, cells were treated with compounds for overnight in the medium with final concentration of FBS 1.3% and DMSO 0.1%. After overnight (16 to 20 hours) incubation, media were removed and cells were lysed with 50 μL Glo Lysis Buffer (Promega) for 10-15 minutes followed by 10 minute incubation with 50 μL Dual Glo reagent (Promega) at room temperature. Firefly luciferase luminescence was measured using a BMG Pherastar plate reader. To each well, 50 μL Stop and Glo reagent was added and incubated for 10 minutes at room temperature. Renilla luminescence was measured using a BMG Pherastar plate reader. To calculate the effect of compounds on RORγt activity, firefly values were normalized against values of DMSO only and values of reference compound at saturating concentration, then further normalized against Renilla signals. IC50s were generated by plotting final Renilla normalized data against compound concentration and percent inhibition was calculated against DMSO control.
Cells used in this assay were transiently co-transfected with three different plasmids, one expressing the GAL4-DNA binding domain (DBD)-RORγt fusion protein under control of a CMV promoter (NH2-Gal4-DBD:RORC-COOH in pCMV-BD, Stratagene #211342), and two reporter plasmids—the firefly luciferase reporter under control of a GAL4 promoter (pFR-Luc 2×GAL4) and Renilla luciferase reporter under control of CMV promoter (pRL-CMV, Promega # E2261). The full-length coding sequence was used for human RORγt, i.e., nucleotides 142-1635 of human RORγt, transcript variant 2, NCBI Accession: NM_001001523.1 (SEQ ID NO:1). HEK293T cells were plated at 8750 cells per well in 384-well plate in medium of DMEM with 10% FBS. After 18-22 hours incubation, the transfection was carried out by using a PEI solution with 42.6 ng total DNA/well (12.5 ng pCMV-BD-ROR plus 5 ng of pFR-Luc reporter and 0.125 ng of pRL-CMV reporter plus 25 ng Carrier DNA (Clontech #630440) for each well). 4-6 hours after transfection, cells were treated with compounds for overnight in the medium with final concentration of FBS 1.3% and DMSO 0.1%. After overnight (16 to 20 hours) incubation, media were removed and cells were lysed with 20 μL Glo Lysis Buffer (Promega) for 10-15 minutes followed by 10 minute incubation with 20 μL Dual Glo reagent (Promega) at room temperature. Firefly luciferase luminescence was measured using a BMG Pherastar plate reader. To each well, 20 μL Stop and Glo reagent was added and incubated for 10 minutes at room temperature. Renilla luminescence was measured using a BMG Pherastar plate reader. To calculate the effect of compounds on RORγt activity, firefly values were normalized against values of DMSO only and values of reference compound at saturating concentration, then further normalized against Renilla signals.

[1] = biological target: human RORγt ligand binding domain (RORγt LBD) (Homo sapiens (Human), UniProt P51449); assay: RORγt ThermoFluor® assay (thermal shift binding); details: read-out: ThermoFluor® Assay, Kd
Description: ThermoFluor® is a fluorescence based assay that estimates ligand binding affinities by measuring the effect of a ligand on protein thermal stability (Pantoliano, M. W., Petrella, E. C., Kwasnoski, J. D., Lobanov, V. S., Myslik, J., Graf, E., Carver, T., Asel, E., Springer, B. A., Lane, P., and Salemme, F. R. (2001) High-density miniaturized thermal shift assays as a general strategy for drug discovery. J Biomol Screen 6, 429-40, and Matulis, D., Kranz, J. K., Salemme, F. R., and Todd, M. J. (2005) Thermodynamic stability of carbonic anhydrase: measurements of binding affinity and stoichiometry using ThermoFluor. Biochemistry 44, 5258-66). This approach is applicable to a wide variety of systems, and rigorous in theoretical interpretation through quantitation of equilibrium binding constants (KD).
The shift in the melting point described as a ΔTm is proportional to the concentration and affinity of the ligand. The compound potency may be compared as a rank order of either ΔTm values at a single compound concentration or in terms of KD values, estimated from concentration response curves.
RORγt ThermoFluor® Assay Construct
For the RORγt construct used in the ThermoFluor® assay, numbering for the nucleotide sequences was based on the reference sequence for human RORγt, transcript variant 2, NCBI Accession: NM_001001523.1 (SEQ ID NO:1). Nucleotides 850-1635 (SEQ ID NO:2) coding for the wild type human RORγt ligand binding domain (RORγt LBD) were cloned into the pHIS1 vector, a modified pET E. coli expression vector (Accelagen, San Diego), containing an in-frame N-terminal His-tag and a TurboTEV protease cleavage site (ENLYFQG, SEQ ID NO:3) upstream of the cloned insert sequence. The amino acid sequence for the RORγt construct used in the Thermofluor® assay is shown as SEQ ID NO:4.
ThermoFluor® experiments were carried out using instruments owned by Janssen Research and Discovery, L.L.C. through its acquisition of 3-Dimensional Pharmaceuticals, Inc. 1,8-ANS (Invitrogen) was used as a fluorescent dye. Protein and compound solutions are dispensed into black 384-well polypropylene PCR microplates (Abgene) and overlayed with silicone oil (1 μL, Fluka, type DC 200) to prevent evaporation.
Bar-coded assay plates are robotically loaded onto a thermostatically controlled PCR-type thermal block and then heated at a typical ramp-rate of 1° C./min for all experiments. Fluorescence was measured by continuous illumination with UV light (Hamamatsu LC6) supplied via fiber optic and filtered through a band-pass filter (380-400 nm; >6 OD cutoff). Fluorescence emission of the entire 384-well plate was detected by measuring light intensity using a CCD camera (Sensys, Roper Scientific) filtered to detect 500±25 nm, resulting in simultaneous and independent readings of all 384 wells. Images were collected at each temperature, and the sum of the pixel intensity in a given area of the assay plate was recorded versus temperature. Reference wells contained RORγt without compounds, and the assay conditions were as follows: • 0.065 mg/mL RORγt • 60 μM 1,8-ANS • 100 mM Hepes, pH 7.0 • 10 mM NaCl • 2.5 mM GSH • 0.002% Tween-20
Project compounds were arranged in a pre-dosed mother plate (Greiner Bio-one) wherein compounds are serially diluted in 100% DMSO by 1:2 from a high concentration of 10 mM over 12 columns within a series (column 12 is a reference well containing DMSO, no compound). The compounds were robotically dispensed directly into assay plates (×=46 nL) using a Hummingbird capillary liquid handling instrument (Digilab). Following compound dispense, protein and dye in buffer was added to achieve the final assay volume of 3 μL, followed by 1 μL of silicone oil.

full-length human RORγt, sequence (P51449 other isoform, or with tags, fused parts or gaps): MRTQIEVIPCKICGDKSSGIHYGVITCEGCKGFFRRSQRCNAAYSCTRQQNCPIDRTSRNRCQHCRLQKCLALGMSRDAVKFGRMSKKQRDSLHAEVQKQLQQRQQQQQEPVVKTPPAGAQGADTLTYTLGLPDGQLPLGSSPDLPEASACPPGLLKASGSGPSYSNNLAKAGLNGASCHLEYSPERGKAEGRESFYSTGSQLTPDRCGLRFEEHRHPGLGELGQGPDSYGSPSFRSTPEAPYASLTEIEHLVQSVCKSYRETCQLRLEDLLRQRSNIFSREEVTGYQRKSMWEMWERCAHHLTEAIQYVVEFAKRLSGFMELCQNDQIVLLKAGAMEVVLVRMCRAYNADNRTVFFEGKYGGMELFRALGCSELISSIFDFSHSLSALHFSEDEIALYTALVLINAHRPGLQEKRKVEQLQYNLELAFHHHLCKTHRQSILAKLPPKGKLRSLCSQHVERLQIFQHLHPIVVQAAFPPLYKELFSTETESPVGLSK
human RORγt ligand binding domain (RORγt LBD), sequence (P51449 other isoform, or with tags, fused parts or gaps): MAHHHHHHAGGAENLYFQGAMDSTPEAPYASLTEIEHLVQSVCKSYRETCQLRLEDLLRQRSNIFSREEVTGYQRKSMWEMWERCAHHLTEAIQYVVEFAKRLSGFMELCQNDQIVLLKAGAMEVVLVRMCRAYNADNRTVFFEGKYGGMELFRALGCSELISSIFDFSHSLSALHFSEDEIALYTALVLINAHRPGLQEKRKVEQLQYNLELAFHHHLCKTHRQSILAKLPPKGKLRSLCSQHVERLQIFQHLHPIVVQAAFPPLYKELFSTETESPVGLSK

Row | Compound | inhibition at 3 µM (full-length human RORγt) [%] | IC50 (full-length human RORγt) [nM] | Kd [1] [nM] | RORγt (FL) Reporter Assay B or C, % inhibition (value marked *) (full-length human RORγt; Conditions B or C) | RORγt (FL) Reporter Assay B or C, % inhibition (value marked ***) (full-length human RORγt; Conditions B or C, marked ***: footnote not given) | IC50 (full-length human RORγt; Conditions B or C) [nM]
1 | C[C@H](NC(=O)c1nc(C(=O)N2CC(F)(F)C[C@@H]2C)c(-c2cnc(NC(C)(C)C)cc2C(F)F)s1)C(C)(C)O [Example 257, 5-[6-(tert-Butylamino)-4-(difluoromethyl)-3-pyridyl]-4-[(2S)-4,4-difluoro-2-methyl-pyrrolidine-1-carbonyl]-N-[(1S)-2-hydroxy-1,2-dimethyl-propyl]thiazole-2-carboxamide] | 98 | 31 | 1.8 | – | – | –
2 | C[C@H]1CCCN1C(=O)c1nc(C(=O)NCC(C)(C)O)sc1-c1cnc(NCC(C)(C)C(F)(F)F)cc1C(F)(F)F [Example 120, (S)—N-(2-Hydroxy-2-methylpropyl)-4-(2-methylpyrrolidine-1-carbonyl)-5-(6-((3,3,3-trifluoro-2,2-dimethylpropyl)amino)-4-(trifluoromethyl)pyridin-3-yl)thiazole-2-carboxamide] | – | – | 1.7 | 103* % | – | 26
3 | CC(C)(O)CNC(=O)c1nc(C(=O)N2C3CCC2CC3)c(-c2cnc(NC3(C(F)(F)F)CCC3)cc2C(F)(F)F)s1 [Example 99, 4-((1s,4s)-7-Azabicyclo[2.2.1]heptane-7-carbonyl)-N-(2-hydroxy-2-methylpropyl)-5-(4-(trifluoromethyl)-6-((1-(trifluoromethyl)cyclobutyl)amino)pyridin-3-yl)thiazole-2-carboxamide] | – | – | 0.58 | 108* % | – | 11
4 | C[C@H](Nc1cc(C(F)F)c(-c2sc(C(=O)NCC(C)(C)O)nc2C(=O)N2CCC[C@@H]2C)cn1)C(F)(F)F [Example 145, 5-(4-(Difluoromethyl)-6-(((S)-1,1,1-trifluoropropan-2-yl)amino)pyridin-3-yl)-N-(2-hydroxy-2-methylpropyl)-4-((S)-2-methylpyrrolidine-1-carbonyl)thiazole-2-carboxamide] | – | – | – | – | 76*** % | –
5 | CC[C@H](Nc1cc(C(F)F)c(-c2sc(C(=O)NCC(C)(C)O)nc2C(=O)N2CCC[C@@H]2C)cn1)C(F)(F)F [Example 92, 5-(4-(Difluoromethyl)-6-(((S)-1,1,1-trifluorobutan-2-yl)amino)pyridin-3-yl)-N-(2-hydroxy-2-methylpropyl)-4-((S)-2-methylpyrrolidine-1-carbonyl)thiazole-2-carboxamide] | – | – | – | 106* % | – | –

The next lines start with results.

Row | inhibition at 3 µM (full-length human RORγt) [%] | IC50 (full-length human RORγt) [nM] | Kd [1] [nM] | RORγt (FL) Reporter Assay B or C, % inhibition (value marked *) (full-length human RORγt; Conditions B or C) | RORγt (FL) Reporter Assay B or C, % inhibition (value marked ***) (full-length human RORγt; Conditions B or C, marked ***: footnote not given) | Compound | IC50 (full-length human RORγt; Conditions B or C) [nM]
6 | 93 | 11 | 2 | – | – | C[C@H]1CC(F)(F)CN1C(=O)c1nc(C(=O)N[C@H]2C[C@H](O)C2)sc1-c1cnc(NC2(C)CCC2)cc1C(F)F [Example 327, 4-((S)-4,4-Difluoro-2-methylpyrrolidine-1-carbonyl)-5-(4-(difluoromethyl)-6-((1-methylcyclobutyl)amino)pyridin-3-yl)-N-((1r,3S)-3-hydroxycyclobutyl)thiazole-2-carboxamide] | –
7 | 98 | 170 | 22 | – | – | C[C@H]1CCCN1C(=O)c1nc(C(=O)NCC(C)(C)N)sc1-c1cnc(NC(C)(C)C)cc1C(F)(F)F [Example 355, N-(2-Amino-2-methyl-propyl)-5-[6-(tert-butylamino)-4-(trifluoromethyl)-3-pyridyl]-4-[(2S)-2-methylpyrrolidine-1-carbonyl]thiazole-2-carboxamide] | –
8 | 98 | 830 | – | – | – | C[C@H]1CCCN1C(=O)c1nc(C(=O)NCC(C)(C)O)sc1-c1cnc(NC2CCCCC2)c(C#N)c1 [Example 281, 5-[5-Cyano-6-(cyclohexylamino)-3-pyridyl]-N-(2-hydroxy-2-methyl-propyl)-4-[(2S)-2-methylpyrrolidine-1-carbonyl]thiazole-2-carboxamide] | –
9 | 104 | – | – | – | – | [2H]C([2H])(NC(=O)c1nc(C(=O)N2CCC[C@@H]2C)c(-c2cnc(N[C@@H](C)C(F)(F)F)cc2C(F)F)s1)C(C)(C)O [Example 286, 5-(4-(Difluoromethyl)-6-(((S)-1,1,1-trifluoropropan-2-yl)amino)pyridin-3-yl)-N-(2-hydroxy-2-methylpropyl-1,1-d2)-4-((S)-2-methylpyrrolidine-1-carbonyl)thiazole-2-carboxamide] | –
10 | 100 | – | – | – | – | [2H]C([2H])(NC(=O)c1nc(C(=O)N2CCC[C@@H]2C)c(-c2cnc(N[C@@H](CC)C(F)(F)F)cc2C(F)F)s1)C(C)(C)O [Example 266, N-(1,1-Dideuterio-2-hydroxy-2-methyl-propyl)-5-[4-(difluoromethyl)-6-[[(1S)-1-(trifluoromethyl)propyl]amino]-3-pyridyl]-4-[(2S)-2-methylpyrrolidine-1-carbonyl]thiazole-2-carboxamide] | –
